What was measured:
TAAR6 = biological target: T1, TAAR6 (Mus musculus, UniProt Q5QD13); assay: TAAR transcript level by RT-qPCR after in vivo exposure; details: olfactory stimulation during 48 hours
T1 construct: from tissue; host or cells: main olfactory epithelium of living mice
Procedure: (§1) In vivo exposure to odorant: Starting 48 h before experiments, mice were habituated to pure DMSO on a cotton ball. 200 μl were pipetted directly onto the cotton and placed in the cage, replacing any cotton that was already in the cage for nest-making purposes.
(§2) On the day of the experiment, mice receiving odorants were transferred to a different room, where they were exposed to a cotton ball on which 200 μl of odorant diluted in pure DMSO were deposited. Exposures started in the morning between 8 and 10 am (that is two hours after lights were on) and mice were killed and dissected between 1 and 3 pm. […] If a number of different odorants were tested in the same experiment, a different overpressurized room would always be used for each odorant to avoid odor cross-contamination.
(§3) After odorant exposure, mice were killed by cervical dislocation and immediately decapitated. The main olfactory epithelia (MOE), were harvested in their entirety and transferred to a tube containing 600 μl of lysis buffer and β-mercaptoethanol (RNAeasy kit, Qiagen, following the manufacturer protocol) and a 0.5 cm diameter steel ball, and then put on ice. Samples were then homogenized using a FastPrep®-24 instrument (MP Biomedicals) at 6 m/s for 30 s and left on ice. […]
(§4) RNA concentrations were determined using an Amersham Ultrospec® 3100 Pro spectrophotometer, and RNA quality was evaluated with an Agilent Technologies 2100 Bioanalyzer®. […]
(§5) qPCR Ct values were analyzed using an in-house developed Microsoft Excel® macro file. […] Ct values were converted to quantities relative to the maximum for each given gene. Selected reference genes were then analyzed for variance using the geNorm algorithm. […]
(§6) Transcript levels of olfactory receptor gene were evaluated following olfactory stimulation during 48 hours by beta-phenylethylamine. Olfactory receptor gene transcript levels were evaluated by RT-qPCR for each receptor gene, and the ratios between the values obtained in exposed versus control mice are shown in FIG. 6. […]

TAAR4 [1] = biological target: T2, TAAR4 (Mus musculus, UniProt Q5QD15); assay: as above; details: olfactory stimulation during 48 hours
T2 construct: from tissue; host or cells: main olfactory epithelium of living mice
Procedure: as §1, §2, §3, §4, §5, §6

TAAR3 [2] = biological target: T3, TAAR3 (Mus musculus, UniProt Q5QD16); assay: as above; details: olfactory stimulation during 48 hours
Procedure: as §1, §2, §3, §4, §5, §6

TAAR4 [3] = biological target: T2, TAAR4; details: Zhang et al, 2013; cited from earlier work
TAAR3 [4] = biological target: T3, TAAR3; details: Zhang et al, 2013; cited from earlier work
Olfr556 = biological target: T4, Olfr556 (Mus musculus, UniProt B2RRG2); assay: OR transcript level by RT-qPCR after in vivo odorant exposure; design: from tissue; host or cells: main olfactory epithelium of exposed mice; details: olfactory stimulation during 48 hours, RT-qPCR
T4 sequence (B2RRG2 1-324): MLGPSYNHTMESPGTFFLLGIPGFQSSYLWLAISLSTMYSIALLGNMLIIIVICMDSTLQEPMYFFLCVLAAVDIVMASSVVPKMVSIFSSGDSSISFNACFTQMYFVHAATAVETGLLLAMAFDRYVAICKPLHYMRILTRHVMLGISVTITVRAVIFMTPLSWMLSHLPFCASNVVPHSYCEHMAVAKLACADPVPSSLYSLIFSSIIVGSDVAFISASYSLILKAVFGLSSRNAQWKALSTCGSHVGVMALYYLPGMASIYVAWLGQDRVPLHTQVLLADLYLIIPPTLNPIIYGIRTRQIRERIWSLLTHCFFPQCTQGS
Procedure: as §1
as §2, with “Exposures started in the morning between 8 and 10 am (that is two hours after lights were on) and mice were killed and dissected between 1 and 3 pm.” left out
After odorant exposure, mice were killed by cervical dislocation and immediately decapitated. The main olfactory epithelia (MOE), were harvested in their entirety and transferred to a tube containing 600 μl of lysis buffer and β-mercaptoethanol (RNAeasy kit, Qiagen, following the manufacturer protocol) and a 0.5 cm diameter steel ball, and then put on ice. Samples were then homogenized using a FastPrep®-24 instrument (MP Biomedicals) at 6 m/s for 30 s and left on ice. RNA extraction was performed on all samples in parallel using the Qiagen RNeasy Mini® kit following the manufacturer's instructions. Two DNase treatments were performed on all samples: first using the Qiagen RNase-Free DNase Set® and then using the Life Technologies Ambion DNase I® kit. RNA samples were then aliquoted and stored at −80° C.
RNA concentrations were determined using an Amersham Ultrospec® 3100 Pro spectrophotometer, and RNA quality was evaluated with an Agilent Technologies 2100 Bioanalyzer®. Each reverse transcription was performed with 0.5 μg RNA using the Takara Primescript® kit, in a final volume of 10 μl. Primers for reverse transcription were equal mixtures of poly-T nucleotides and random hexamers. Negative controls (omitting the reverse transcriptase enzyme) were performed for each sample. 1/14th of the cDNA preparation was used for each triplicated qPCR reaction.
qPCR Ct values were analyzed using an in-house developed Microsoft Excel® macro file. Triplicate values were compared and outliers (values with a difference higher than 0.5 Ct to their nearest neighbor) were discarded. The number of conditions with an outlying value was always less than 10% of the total number of conditions. Ct values were converted to quantities relative to the maximum for each given gene. Selected reference genes were then analyzed for variance using the geNorm algorithm. All values were normalized with the olfactory tissue-specific genes Omp and Adcy3. β-Actin was used as a non-tissue-specific reference gene to control for differences in dissection between samples. […]

Olfr167 [5] = biological target: T5, Olfr167 (Mus musculus, UniProt Q8VGJ5); assay: OR transcripts by qPCR after ex vivo exposure of olfactory epithelia; format: cell-based; details: 50 μM, 2 hours, olfactory epithelia in vitro in ACSF medium
T5 construct: from tissue; host or cells: main olfactory epithelium of C57BL/6 mice (in vivo exposure) or explanted mouse olfactory epithelia (ex vivo)
T5 sequence (Q8VGJ5 1-312): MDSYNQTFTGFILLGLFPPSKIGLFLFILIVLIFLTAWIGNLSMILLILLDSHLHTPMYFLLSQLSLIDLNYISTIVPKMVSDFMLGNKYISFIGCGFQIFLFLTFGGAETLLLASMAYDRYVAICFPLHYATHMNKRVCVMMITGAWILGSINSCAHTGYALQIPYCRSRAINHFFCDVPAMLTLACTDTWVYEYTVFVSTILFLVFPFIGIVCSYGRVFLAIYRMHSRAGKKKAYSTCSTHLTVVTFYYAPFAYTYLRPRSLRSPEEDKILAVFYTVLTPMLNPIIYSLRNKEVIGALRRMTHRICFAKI
Procedure: (§7) In vitro exposure to odorant: The olfactory sensory mucosa of a live or recently dead vertebrate is collected and maintained alive in vitro. Sensory neurons are either left untouched or are dissociated. The exposure to the odorants is then performed in vitro, in a tube, in the liquid phase. The explants/neurons are kept alive in a physiological medium (such as 145 mM NaCl, 5 mM KCl, 1 mM CaCl2, 1 mM MgCl2, 10 mM HEPES, 10 mM glucose). […] The potential modulations of mRNA levels between the two populations are then evaluated, by qPCR (FIG. 2), RNAseq or other techniques, to identify the receptors that have been activated.
(§8) Mouse olfactory epithelia were collected and kept in vitro in ACSF medium where they were exposed for 2 hours to 50 μM ethyl isobutyrate. The number of transcripts for Olfr genes was then evaluated by qPCR, and those of Olfr167 and Olfr171 were both repressed after agonist exposure. Ethyl isobutyrate was previously shown to be an agonist for Olfr167 and Olfr171.

Olfr167 [6] = biological target: T5, Olfr167; details: cited from earlier work
Olfr167 [7] = biological target: T5, Olfr167; assay: OR transcript level by RT-qPCR after in vivo odorant exposure; details: 5% odorant for 5 hours, sensory neuroepithelium, n=7 mice
Procedure: as §1
(§9) On the day of the experiment, mice receiving odorants were transferred to a different room, where they were exposed to a cotton ball on which 200 μl of odorant diluted in pure DMSO were deposited. Exposures started in the morning between 8 and 10 am (that is two hours after lights were on) and mice were killed and dissected between 1 and 3 pm. […]
as §4, §5
(§10) Adult C57BL/6 mice were exposed to 5% ethyl isobutyrate for 5 hours, and the level of transcripts of odorant receptors' genes were measured by RT-qPCR on extracts of olfactory epithelia from these mice, as described in the materials and methods section.

Olfr171 [8] = assay: OR transcripts by qPCR after ex vivo exposure of olfactory epithelia; format: cell-based, Mouse; details: 50 μM, 2 hours, olfactory epithelia in vitro in ACSF medium
Procedure: as §7, §8

[9] = system: Olfr171-expressing neurons; assay: pS6 immunolabeling with OR in situ hybridization after odorant exposure; design: species or system mouse; details: 5% odorant, 60 minutes, in vivo
Procedure: (§11) In order to independently validate the identity of an acetophenone receptor obtained with the RNAseq approach, the potential colocalization following acetophenone exposure of a neuronal activity marker (the phosphorylated ribosomal protein S6 (pS6) (Knight et al., 2012, Cell, 151, 1126-1137) and specific olfactory receptors were evaluated. To this aim, in-situ hybridizations were performed on sections of olfactory tissue with probes targeting receptor mRNAs followed by immunolabeling of pS6. The probes used were directed against the transcripts of most of the ORs determined as responsive including Olfr983 transcripts (encoding a known acetophenone receptor), Olfr171 transcripts (encoding a known ethyl isobutyrate receptor), and Olfr145 transcripts, encoding a newly identified receptor by RNAseq. Before analysis, mice were exposed to either 5% acetophenone, 5% ethyl isobutyrate, or a negative control condition for 60 minutes. […] 66% (Olfr983) and 70% (Olfr145) of the neurons were positive for pS6 after acetophenone exposure, while only 11% of the neurons expressing Olfr171 were positive for pS6 after exposure to this compound.

[10] = system: neurons expressing Olfr145; assay: as above; format: in vivo, mouse; details: 5% odorant, 60 minutes, in vivo
Procedure: as §11

[11] = system: neurons expressing Olfr983; assay: as above; format: in vivo, mouse; details: 5% odorant, 60 minutes, in vivo
Procedure: as §11

Olfr171 [12] = assay: OR transcript level by RT-qPCR after in vivo odorant exposure; design: species or system mouse; details: 5% odorant for 5 hours, sensory neuroepithelium, n=7 mice
Procedure: as §1, §9, §4, §5, §10

[13] = system: control odorant receptor genes (8 genes); assay: as above; design: species or system mouse; details: 5% odorant for 5 hours; margin of ±20% relative to control mice not significant
Procedure: as §1, §9, §4, §5, §10

Olfr171 [14] = details: cited from earlier work
Olfr2 [15] = biological target: T6, Olfr2 (Mus musculus, UniProt Q9QWU6); details: HEK cells; previously shown; read-out: EC50 as agonist of Olfr2; cited from earlier work
T6 construct: host or cells: HEK cells

Olfr2 [16] = biological target: T6, Olfr2; assay: OR transcript level by RT-qPCR after in vivo odorant exposure; details: 5% odorant, 5 hours
Procedure: as §1, §2
(§12) After odorant exposure, mice were killed by cervical dislocation and immediately decapitated. […]
as §4, §5

Olfr16 [17] = biological target: T7, Olfr16 (Mus musculus, UniProt Q62007); design: host or cells: dissociated neurons; details: dissociated neurons; previously shown; read-out: EC50 as agonist of Olfr16; cited from earlier work
Olfr16 [18] = biological target: T7, Olfr16; assay: OR transcript level by RT-qPCR after in vivo odorant exposure; design: from tissue; host or cells: main olfactory epithelium of exposed mice; details: 5% odorant, 5 hours
Procedure: as §1, §2, §12, §4, §5

Olfr609 [19] = assay: as above; design: species or system mouse; details: 5% odorant, 5 hours
Procedure: as §1, §2, §12, §4, §5

Olfr609 [20] = details: HEK cells; previously shown; read-out: EC50 as agonist of Olfr609; cited from earlier work

T2 sequence (Q5QD15 whole entry): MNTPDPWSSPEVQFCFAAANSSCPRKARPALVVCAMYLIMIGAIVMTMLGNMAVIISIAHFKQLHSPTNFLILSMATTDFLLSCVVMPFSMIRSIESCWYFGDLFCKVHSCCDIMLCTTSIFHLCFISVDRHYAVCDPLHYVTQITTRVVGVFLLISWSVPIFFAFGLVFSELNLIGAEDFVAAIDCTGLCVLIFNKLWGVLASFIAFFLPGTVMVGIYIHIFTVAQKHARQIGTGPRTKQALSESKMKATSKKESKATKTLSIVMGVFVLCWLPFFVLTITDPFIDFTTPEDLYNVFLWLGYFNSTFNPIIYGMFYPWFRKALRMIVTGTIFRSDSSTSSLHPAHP
T6 sequence (Q9QWU6 1-327): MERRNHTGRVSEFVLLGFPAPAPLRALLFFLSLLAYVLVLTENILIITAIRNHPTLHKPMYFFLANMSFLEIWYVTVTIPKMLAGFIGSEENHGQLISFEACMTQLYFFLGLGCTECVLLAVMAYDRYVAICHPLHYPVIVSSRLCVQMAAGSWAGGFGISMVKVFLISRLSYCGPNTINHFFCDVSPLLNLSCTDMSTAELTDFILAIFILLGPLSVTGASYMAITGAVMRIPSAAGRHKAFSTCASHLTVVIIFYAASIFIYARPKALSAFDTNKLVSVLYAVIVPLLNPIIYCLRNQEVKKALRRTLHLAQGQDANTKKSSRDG
T3 sequence (Q5QD16 whole entry): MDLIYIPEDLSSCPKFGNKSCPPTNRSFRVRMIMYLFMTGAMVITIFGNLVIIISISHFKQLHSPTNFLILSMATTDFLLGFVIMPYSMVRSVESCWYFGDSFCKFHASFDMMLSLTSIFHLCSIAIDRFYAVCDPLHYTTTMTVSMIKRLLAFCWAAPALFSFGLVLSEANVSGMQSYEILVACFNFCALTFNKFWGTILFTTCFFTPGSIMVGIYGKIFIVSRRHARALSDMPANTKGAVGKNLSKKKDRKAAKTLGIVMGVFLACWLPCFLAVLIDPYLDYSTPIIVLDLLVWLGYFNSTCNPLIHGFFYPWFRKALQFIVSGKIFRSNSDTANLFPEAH
T7 sequence (Q62007 whole entry): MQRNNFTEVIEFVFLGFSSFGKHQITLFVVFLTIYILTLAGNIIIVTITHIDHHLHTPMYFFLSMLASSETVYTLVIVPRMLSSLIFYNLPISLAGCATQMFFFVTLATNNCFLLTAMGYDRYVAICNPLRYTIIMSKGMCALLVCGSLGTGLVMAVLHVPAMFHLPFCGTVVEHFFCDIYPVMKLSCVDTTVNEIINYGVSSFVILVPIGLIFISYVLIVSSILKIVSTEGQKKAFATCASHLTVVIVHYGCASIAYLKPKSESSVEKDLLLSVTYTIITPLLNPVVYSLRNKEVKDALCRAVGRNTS
T1 sequence (Q5QD13 whole entry): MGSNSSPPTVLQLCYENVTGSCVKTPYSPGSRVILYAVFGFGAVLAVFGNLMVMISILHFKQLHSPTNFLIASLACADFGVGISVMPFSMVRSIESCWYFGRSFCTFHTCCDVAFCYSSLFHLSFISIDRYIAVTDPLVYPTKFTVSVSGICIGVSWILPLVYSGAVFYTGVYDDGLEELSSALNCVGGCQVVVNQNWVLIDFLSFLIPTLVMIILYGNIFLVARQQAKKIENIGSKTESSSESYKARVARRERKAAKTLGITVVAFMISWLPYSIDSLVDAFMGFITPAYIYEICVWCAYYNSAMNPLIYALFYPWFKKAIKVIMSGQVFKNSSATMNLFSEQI

In the case of NCCc1ccccc1 [beta-phenylethylamine], the “TAAR6 transcript level (negative control)” value (TAAR6) is reported as “not affected”, the “number of transcripts encoding TAAR4” value (TAAR4 [1]) is reported as “decrease” and the “number of transcripts encoding TAAR3” value (TAAR3 [2]) is reported as “decrease”. For the same compound, the “TAAR4 response previously shown” value (TAAR4 [3]) was “respond”, the “TAAR3 response previously shown” value (TAAR3 [4]) was “respond” and the “Olfr556 transcript level (negative control)” value (Olfr556) was “not affected”.
In the case of CCOC(=O)C(C)C [ethyl isobutyrate], the “number of Olfr167 transcripts after agonist exposure” value (Olfr167 [5]) is given as “repressed”, the “action on Olfr167 previously shown” value (Olfr167 [6]) is given as “agonist” and the “mRNA concentration of Olfr167, decreased, relative to unexposed controls” value (Olfr167 [7]) is given as 47%. The “number of Olfr171 transcripts after agonist exposure” value (Olfr171 [8]) was “repressed”, the “fraction of Olfr171-expressing neurons positive for pS6” value [9] was 67% and the “fraction of Olfr145-expressing neurons positive for pS6” value [10] was 28%. For the same compound, the “fraction of Olfr983-expressing neurons positive for pS6” value [11] was 12%, the “mRNA concentration of Olfr171, decreased, relative to unexposed controls” value (Olfr171 [12]) was 74% and the “concentration of control odorant receptor gene transcripts” value [13] was “none of the control odorant receptor genes (8 genes) was significantly affected”. For the same compound, the “action on Olfr171 previously shown” value (Olfr171 [14]) was “agonist”.
For CCCCCCC=O [heptanal], the EC50 (Olfr2 [15]) is listed as less than 50 µM and the “Olfr2 mRNA level relative to unexposed controls” value (Olfr2 [16]) is listed as “decrease”.
In the case of CC(C)(O)CCCC1=CCC(C=O)CC1 (stereo not shown) [lyral], the EC50 (Olfr16 [17]) is listed as less than 50 µM and the “Olfr16 mRNA level relative to unexposed controls” value (Olfr16 [18]) is listed as “decrease”.
In the case of COc1cc(C(=O)O)ccc1O [vanillic acid], the “Olfr609 mRNA level relative to unexposed controls” value (Olfr609 [19]) is given as “decrease” and the EC50 (Olfr609 [20]) is given as less than 50 µM.

Reference: patent US10473645B2, “Methods for identifying a receptor for a ligand and uses thereof” (UNIVERSITE DE GENEVE, priority 2014, dated 2019)
